SMILES strings stand for the structures. Some results are limits rather than exact numbers.

This experiment has as its system hepatitis virus B (HBV) infection. Description: HepG2 NTCP assay (HBcAg staining as marker of HBV infection). Type of experiment: cell-based. The following applies: HepG2-NTCP cells infected with HBV, HBV core antigen (HBcAg) as marker of infection. The text has this: The principle of the hepG2-NTCP assay is to measure the effect of a test compound on the inhibition of the hepatitis virus B (HBV) infection compared to a reference compound. To be able to infect the hepatocellular carcinoma cells (HepG2) with HBV, HepG2 cells were stably transfected with the Na+-taurocholate co-transporting polypeptide (NTCP) receptor, also referred to as Sodium/bile acid cotransporter (SLC10A1), which is necessary for HBV infection. In this assay the HBV core antigen (HBcAg) is used as a marker of HBV infection. Nuclei count is used as an indication for compound toxicity.
On day one, HepG2-NTCP cells ((Ni et al., 2014)) are seeded at 5000 cells in 50 µL per well in assay medium (DMEM high glucose supplemented with 10% non-heat inactivated (non HI) fetal bovine serum (FBS), 1% P/S, 1% L-glutamine and 1% MEM NEAA) in 384 well plate and incubated at 37°C, 5% CO2 overnight.
Compounds are prepared as 10 point serial dilutions using 1/3 dilution steps in 100% DMSO starting from 10 mM highest concentration, unless otherwise requested for very potent compounds, which started from 5mM or 1mM stock. Compounds are further diluted 1/500 in assay medium.
A negative control (vehicle: 24 wells with 0.2% DMSO) and positive control (24 wells with 100nM Myrcludex B (Cas no.: 406461-66-3), 0.2% DMSO and in 10 point DR) are included in the experiments.
On the second day, 40µl medium is removed from the cells with the plate washer (Select 405 microplate washer, Biotek). 15 µL of diluted compound series is transferred to the assay plate and cells are infected with 15 µL of HBV mix (HBV virus, 4%PEG, 1%DMSO in assay medium). The infection is performed in assay medium containing final concentration of 1% DMSO. The assay plate is incubated at 37°C, 5% CO2 overnight.
The next day, 30µl compound and HBV mix are removed from the assay plate with the plate washer and 30 µL of compound series diluted 1/500 in assay medium containing final concentration of 2.5% DMSO is added to the cell assay plate. The assay plate is incubated at 37°C, 5% CO2 for 5 days.
After 5 days of incubation, supernatant is removed from the cells with the plate washer. Cells are fixed with 50 µL of 3.7% formaldehyde added with the Well mate (Matrix technologies) and incubated for 30 min at room temperature. After fixation, cells are washed four times with phosphate buffer saline (1xPBS, 137mM NaCl, 10mM na2HPO4, 2.7mM KCl, 1.8mM KH2PO4 at pH7.4). The cells are finally subjected to HBc staining.
First, the assay plate is blocked with blocking buffer (2%FBS, 3% BSA, 0.2% TritonX100 in PBS) for 1 h at room temperature (optional to block overnight at 4°C).
After 4 washes of PBST (1XPBS + 0.05% Tween) with the plate washer, the assay plate is incubated with 30 µL diluted primary antibody (1/700 Rabbit anti-HBV core antigen, Dako, B0586 or 1/350 Rabbit anti HBV core antigen, Invitrogen, PA516368) in blocking buffer and incubated for 90 min at room temperature.
After 4 washes of PBST with the plate washer, the assay plate is incubated with 50 µL of secondary antibody (Donkey-anti-rabbit Alexa 488 antibody, Lifetechnologies A21206) 1/500 diluted in blocking buffer and incubated for 60 min at room temperature and in the dark.
The assay plate is washed 4 times with PBST on the plate washer and incubated with 50µL of DAPI (Sigma D9542, stock 5mg/mL) 1/10000 diluted in PBS for 15-30 min at room temperature and in the dark. The assay plate is now ready for read out on the InCell Analyzer 2200 (GE Healthcare).
Raw data are generated following read-out performed on InCell 2200 and are imported into the galapagos LIMS for automated calculation of percentage inhibition (PIN) and toxicity by nuclei count, using the control wells mentioned above, and creation of Dose Response curves. Table V. Hepg2 NTCP assay activity of illustrative compounds of the invention
Consider `COc1cc2c(cc1OCC1CN(S(C)(=O)=O)C1)OC(C(C)C)c1cc(C(=O)O)c(=O)n(C3CC3)c1-2` (centres unmarked) [Compound 32, 1-cyclopropyl-5-isopropyl-9-methoxy-8-[(1-methylsulfonylazetidin-3-yl)methoxy]-2-oxo-5H-chromeno[4,3-b]pyridine-3-carboxylic acid], for which the IC50 is 1 to 20 nM.
Next, `COc1cc2c(cc1OCC1COCCO1)OC(C(C)C)c1cc(C(=O)O)c(=O)n(C3CC3)c1-2` (centres unmarked) [Compound 33, 1-cyclopropyl-8-(1,4-dioxan-2-ylmethoxy)-5-isopropyl-9-methoxy-2-oxo-5H-chromeno[4,3-b]pyridine-3-carboxylic acid]: 1 to 20 nM; `COc1cc2c(cc1OCC1COC1)OC(C(C)C)c1cc(C(=O)O)c(=O)n(C3CC3)c1-2` (centres unmarked) [Compound 34, 1-cyclopropyl-5-isopropyl-9-methoxy-8-(oxetan-3-ylmethoxy)-2-oxo-5H-chromeno[4,3-b]pyridine-3-carboxylic acid]: 1 to 20 nM; `COc1cc2c(cc1OCC1CNC(=O)O1)OC(C(C)C)c1cc(C(=O)O)c(=O)n(C3CC3)c1-2` (centres unmarked) [Compound 35, 1-cyclopropyl-5-isopropyl-9-methoxy-2-oxo-8-[(2-oxooxazolidin-5-yl)methoxy]-5H-chromeno[4,3-b]pyridine-3-carboxylic acid]: 20 to 100 nM.
In the case of `COc1cc2c(cc1OCCCO)OC(C(C)C)c1cc(C(=O)O)c(=O)n(C3CC3)c1-2` (centres unmarked) [Compound 36, 1-cyclopropyl-8-(3-hydroxypropoxy) -5-isopropyl-9-methoxy-2-oxo-5H-chromeno[4,3-b]pyridine-3-carboxylic acid] it was 1 to 20 nM; in that of `CCOc1cc2c(cc1OC)-c1c(cc(C(=O)O)c(=O)n1C1CC1)C(C(C)C)O2` (centres unmarked) [Compound 37, 1-cyclopropyl-8-ethoxy-5-isopropyl-9-methoxy-2-oxo-5H-chromeno[4,3-b]pyridine-3-carboxylic acid], 1 to 20 nM.
In the case of `COc1cc2c(cc1OCC(C)C)OC(C(C)C)c1cc(C(=O)O)c(=O)n(C3CC3)c1-2` (centres unmarked) [Compound 38, 1-cyclopropyl-8-isobutoxy-5-isopropyl-9-methoxy-2-oxo-5H-chromeno[4,3-b]pyridine-3-carboxylic acid] it was 1 to 20 nM.
As to `COc1cc2c(cc1OC(C)C)OC(C(C)C)c1cc(C(=O)O)c(=O)n(C3CC3)c1-2` (centres unmarked) [Compound 39, 1-cyclopropyl-8-isopropoxy-5-isopropyl-9-methoxy-2-oxo-5H-chromeno[4,3-b]pyridine-3-carboxylic acid], the IC50 is 1 to 20 nM.
In the case of `CCCOc1cc2c(cc1OC)-c1c(cc(C(=O)O)c(=O)n1C1CC1)C(C(C)C)O2` (centres unmarked) [Compound 40, 1-cyclopropyl-5-isopropyl-9-methoxy-2-oxo-8-propoxy-5H-chromeno[4,3-b]pyridine-3-carboxylic acid] it was 1 to 20 nM; in that of `COc1cc2c(cc1OCc1ccccc1)OC(C(C)C)c1cc(C(=O)O)c(=O)n(C3CC3)c1-2` (centres unmarked) [Compound 41, 8-benzyloxy-1-cyclopropyl-5-isopropyl-9-methoxy-2-oxo-5H-chromeno[4,3-b]pyridine-3-carboxylic acid], over 100 nM.
In the case of `CCOCCOc1cc2c(cc1OC)-c1c(cc(C(=O)O)c(=O)n1C1CC1)C(C(C)C)O2` (centres unmarked) [Compound 42, 1-cyclopropyl-8-(2-ethoxyethoxy)-5-isopropyl-9-methoxy-2-oxo-5H-chromeno[4,3-b]pyridine-3-carboxylic acid] it was 1 to 20 nM; in that of `COc1cc2c(cc1OCC1(C#N)CCC1)OC(C(C)C)c1cc(C(=O)O)c(=O)n(C3CC3)c1-2` (centres unmarked) [Compound 43, 8-[(1-cyanocyclobutyl)methoxy]-1-cyclopropyl-5-isopropyl-9-methoxy-2-oxo-5H-chromeno[4,3-b]pyridine-3-carboxylic acid], 1 to 20 nM; in that of `COCCCOc1cc2c(cc1F)-c1c(cc(C(=O)O)c(=O)n1C1CC1)[C@@H](C(C)C)O2` [Compound 45, (5R)-1-cyclopropyl-9-fluoro-5-isopropyl-8-(3-methoxypropoxy)-2-oxo-5H-chromeno[4,3-b]pyridine-3-carboxylic acid], over 100 nM.
In the case of `COCCCOc1cc2c(cc1Cl)-c1c(cc(C(=O)O)c(=O)n1C1CCC1)C(C1(C)COC1)O2` (centres unmarked) [Compound 48, 9-chloro-1-cyclobutyl-8-(3-methoxypropoxy) -5-(3-methyloxetan-3-yl)-2-oxo-5H-chromeno[4,3-b]pyridine-3-carboxylic acid] it was 0.001 to 1 nM; in that of `COCCCOc1cc2c(cc1F)-c1c(cc(C(=O)O)c(=O)n1C1CC1)C(C1(C)COC1)O2` (centres unmarked) [Compound 49, 1-cyclopropyl-9-fluoro-8-(3-methoxypropoxy) -5-(3-methyloxetan-3-yl)-2-oxo-5H-chromeno[4,3-b]pyridine-3-carboxylic acid], 0.001 to 1 nM; in that of `CC(C)C1Oc2cc(OC[C@@H]3COCCO3)c(Cl)cc2-c2c1cc(C(=O)O)c(=O)n2C1CC1` (stereo partly drawn) [Compound 50, 9-chloro-1-cyclopropyl-8-[[(2S)-1,4-dioxan-2-yl]methoxy]-5-isopropyl-2-oxo-5H-chromeno[4,3-b]pyridine-3-carboxylic acid], 0.001 to 1 nM.
For the compound `CC(C)C1Oc2cc(OC[C@H]3COCCO3)c(Cl)cc2-c2c1cc(C(=O)O)c(=O)n2C1CC1` (stereo partly drawn) [Compound 51, 9-chloro-1-cyclopropyl-8-[[(2R)-1,4-dioxan-2-yl]methoxy]-5-isopropyl-2-oxo-5H-chromeno[4,3-b]pyridine-3-carboxylic acid], the IC50 was in the range of 0.001 to 1 nM.
Regarding `CC(C)C1Oc2cc(OCC3(C)COC3)c(Cl)cc2-c2c1cc(C(=O)O)c(=O)n2C1CC1` (centres unmarked) [Compound 52, 9-chloro-1-cyclopropyl-5-isopropyl-8-[(3-methyloxetan-3-yl)methoxy]-2-oxo-5H-chromeno[4,3-b]pyridine-3-carboxylic acid], the IC50 lay within 0.001 to 1 nM.
In the case of `COCCCOc1cc2c(cc1Cl)-c1c(cc(C(=O)O)c(=O)n1C1CC1)C(C1CCOC1)O2` (centres unmarked) [Compound 53, 9-chloro-1-cyclopropyl-8-(3-methoxypropoxy) -2-oxo-5-tetrahydrofuran-3-yl-5H-chromeno[4,3-b]pyridine-3-carboxylic acid] it was 0.001 to 1 nM; in that of `COCCCOc1cc2c(cc1Cl)-c1c(cc(C(=O)O)c(=O)n1C1CC1)C(C1CCOCC1)O2` (centres unmarked) [Compound 54, 9-chloro-1-cyclopropyl-8-(3-methoxypropoxy) -2-oxo-5-tetrahydropyran-4-yl-5H-chromeno[4,3-b]pyridine-3-carboxylic acid], 0.001 to 1 nM; in that of `COc1cc2c(cc1Cl)-c1c(cc(C(=O)O)c(=O)n1C1CC1)C(C1(C)COC1)O2` (centres unmarked) [Compound 55, 9-chloro-1-cyclopropyl-8-methoxy-5-(3-methyloxetan-3-yl)-2-oxo-5H-chromeno[4,3-b]pyridine-3-carboxylic acid], 0.001 to 1 nM.
Next, `CCOc1cc2c(cc1Cl)-c1c(cc(C(=O)O)c(=O)n1C1CC1)C(C1(C)COC1)O2` (centres unmarked) [Compound 56, 9-chloro-1-cyclopropyl-8-ethoxy-5-(3-methyloxetan-3-yl)-2-oxo-5H-chromeno[4,3-b]pyridine-3-carboxylic acid]: 0.001 to 1 nM; `CC1(C2Oc3cc(OCC4CC4)c(Cl)cc3-c3c2cc(C(=O)O)c(=O)n3C2CC2)COC1` (centres unmarked) [Compound 57, 9-chloro-1-cyclopropyl-8-(cyclopropylmethoxy)-5-(3-methyloxetan-3-yl)-2-oxo-5H-chromeno[4,3-b]pyridine-3-carboxylic acid]: 1 to 20 nM.

A word on the IC50: it is the point on the concentration scale where inhibition reaches its midpoint. A high value points to weaker potency in that assay.

The values above are taken from patent EP3720857B1, “2-OXO-5H-CHROMENO[4,3-B]PYRIDINES FOR USE IN THE TREATMENT OF HEPATITIS B” (Galapagos NV, priority 2017, dated 2019).
